Experimental data published in ChEMBL document CHEMBL2331125, “Anthraquinone Derivatives as Potent Inhibitors of c-Met Kinase and the Extracellular Signaling Pathway” (ACS Med Chem Lett, 2013).
Activity calls are given as the source filed them. The calls are words filed in the database; no cut-off is given here.

Each molecule was assayed against Hepatocyte growth factor receptor (Mus musculus) (UniProt P16056) (assay: Inhibition of TPR-Met phosphorylation in mouse BAF3 cells at 10 uM after 2 hrs by Western blot analysis).
Chain of Hepatocyte growth factor receptor (Mus musculus) (P16056 whole entry): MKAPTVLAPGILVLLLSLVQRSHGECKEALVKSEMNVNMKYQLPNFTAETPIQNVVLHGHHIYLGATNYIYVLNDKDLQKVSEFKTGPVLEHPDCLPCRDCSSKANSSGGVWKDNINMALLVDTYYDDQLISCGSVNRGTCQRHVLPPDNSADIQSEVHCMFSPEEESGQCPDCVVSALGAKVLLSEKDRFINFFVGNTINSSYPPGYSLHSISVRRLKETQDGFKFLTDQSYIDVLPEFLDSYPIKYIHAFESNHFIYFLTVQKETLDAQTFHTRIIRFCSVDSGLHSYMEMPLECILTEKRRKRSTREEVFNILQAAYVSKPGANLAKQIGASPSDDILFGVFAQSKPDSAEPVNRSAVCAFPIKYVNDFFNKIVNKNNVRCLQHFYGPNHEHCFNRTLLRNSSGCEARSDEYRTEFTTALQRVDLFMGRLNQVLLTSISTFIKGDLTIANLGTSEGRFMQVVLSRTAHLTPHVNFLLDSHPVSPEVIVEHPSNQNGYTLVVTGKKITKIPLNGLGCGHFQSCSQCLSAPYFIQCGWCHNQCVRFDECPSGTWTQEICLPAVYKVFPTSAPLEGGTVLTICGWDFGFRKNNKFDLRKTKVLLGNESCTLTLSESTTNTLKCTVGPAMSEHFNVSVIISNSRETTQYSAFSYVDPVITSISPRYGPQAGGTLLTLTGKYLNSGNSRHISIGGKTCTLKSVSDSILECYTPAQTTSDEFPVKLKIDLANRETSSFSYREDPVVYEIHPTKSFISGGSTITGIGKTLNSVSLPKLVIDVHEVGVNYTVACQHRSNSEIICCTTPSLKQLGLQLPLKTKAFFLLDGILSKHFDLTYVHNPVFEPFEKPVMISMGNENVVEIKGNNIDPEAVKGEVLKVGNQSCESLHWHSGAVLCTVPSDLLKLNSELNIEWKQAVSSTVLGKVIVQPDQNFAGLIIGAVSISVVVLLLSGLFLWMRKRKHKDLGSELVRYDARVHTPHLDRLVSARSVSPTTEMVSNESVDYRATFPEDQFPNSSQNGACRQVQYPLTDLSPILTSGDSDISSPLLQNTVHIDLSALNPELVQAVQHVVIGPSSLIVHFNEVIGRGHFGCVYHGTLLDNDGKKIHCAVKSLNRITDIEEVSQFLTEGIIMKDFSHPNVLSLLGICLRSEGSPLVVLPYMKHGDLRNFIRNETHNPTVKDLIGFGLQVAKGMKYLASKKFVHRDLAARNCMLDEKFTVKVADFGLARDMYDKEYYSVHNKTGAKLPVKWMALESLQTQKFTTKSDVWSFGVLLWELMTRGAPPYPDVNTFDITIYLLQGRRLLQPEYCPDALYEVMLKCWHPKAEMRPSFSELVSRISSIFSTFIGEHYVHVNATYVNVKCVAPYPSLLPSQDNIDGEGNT
Assay type: cell-based
`Nc1c(S(=O)(=O)O)cc(Nc2ccc(-c3ccc(Nc4cc(S(=O)(=O)O)c(N)c5c4C(=O)c4ccccc4C5=O)cc3)cc2)c2c1C(=O)c1ccccc1C2=O` was tested, and the inhibition was “inactive”. `Nc1c(S(=O)(=O)O)cc(Nc2ccc(-c3ccc(Nc4ncccn4)cc3)cc2)c2c1C(=O)c1ccccc1C2=O` was tested, and the inhibition was “inactive”. With `CC(=O)Nc1ccc(-c2ccc(Nc3cc(S(=O)(=O)O)c(N)c4c3C(=O)c3ccccc3C4=O)cc2)cc1` the inhibition was “inactive”. With `Nc1c(S(=O)(=O)O)cc(Nc2ccc(Cc3ccc(Nc4cc(S(=O)(=O)O)c(N)c5c4C(=O)c4ccccc4C5=O)cc3)cc2)c2c1C(=O)c1ccccc1C2=O` the inhibition was “inactive”. In the case of `Nc1ccc(-c2ccc(Nc3cc(S(=O)(=O)O)c(N)c4c3C(=O)c3ccccc3C4=O)cc2)cc1`, the inhibition is reported as “inactive”. `Cc1cc(-c2ccc(Nc3cc(S(=O)(=O)O)c(N)c4c3C(=O)c3ccccc3C4=O)c(C)c2)ccc1N` was tested, and the inhibition was “inactive”. For `Cc1cc(Nc2cc(S(=O)(=O)O)c(N)c3c2C(=O)c2ccccc2C3=O)ccc1-c1ccc(Nc2cc(S(=O)(=O)O)c(N)c3c2C(=O)c2ccccc2C3=O)cc1C`, the inhibition was “inactive”. `Cc1cc(-c2ccc(Nc3cc(S(=O)(=O)O)c(N)c4c3C(=O)c3ccccc3C4=O)c(C)c2)ccc1Nc1cc(S(=O)(=O)O)c(N)c2c1C(=O)c1ccccc1C2=O` was tested, and the inhibition was “inactive”.
